Numbered stars: 1 amine (or outer) side, 2 acyl side, 3 side chain; on linkers, the order of the positions; unused ones are H or OH. Peptide text beside a SMILES is read from it. * marks the point of attachment. C20 diacid = O=C(O)CCCCCCCCCCCCCCCCCCC(=O)*; C18 diacid = O=C(O)CCCCCCCCCCCCCCCCC(=O)*; γGlu = O=C(O)[C@H](CCC(=O)[*:2])N[*:1]
How the values were obtained:
[1] = target: T1, Amylin receptor AMY3; CALCR/RAMP3 (Homo sapiens, UniProt O60896+P30988); test: Agonist activity at human amylin receptor expressed in BHK570 cells co-expressing RAMP3 assessed as increase in intracellular cAMP concentration incubated for 3 hrs in presence of 10% FBS by CRE luciferase reporter gene assay; assay type: functional, cell-based
T1 sequence (P30988 whole entry): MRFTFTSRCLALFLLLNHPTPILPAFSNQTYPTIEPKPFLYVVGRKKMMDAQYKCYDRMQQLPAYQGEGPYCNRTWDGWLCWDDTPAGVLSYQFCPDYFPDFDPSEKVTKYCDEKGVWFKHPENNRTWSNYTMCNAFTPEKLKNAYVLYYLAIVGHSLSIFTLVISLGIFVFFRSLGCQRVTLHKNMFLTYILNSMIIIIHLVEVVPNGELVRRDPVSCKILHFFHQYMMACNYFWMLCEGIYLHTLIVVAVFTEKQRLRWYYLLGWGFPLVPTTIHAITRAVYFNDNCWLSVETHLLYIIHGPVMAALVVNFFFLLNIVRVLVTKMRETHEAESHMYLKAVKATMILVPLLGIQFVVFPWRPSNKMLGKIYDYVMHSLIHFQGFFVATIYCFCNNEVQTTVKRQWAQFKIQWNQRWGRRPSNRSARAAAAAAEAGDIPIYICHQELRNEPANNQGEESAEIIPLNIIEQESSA
T1 sequence (O60896 whole entry): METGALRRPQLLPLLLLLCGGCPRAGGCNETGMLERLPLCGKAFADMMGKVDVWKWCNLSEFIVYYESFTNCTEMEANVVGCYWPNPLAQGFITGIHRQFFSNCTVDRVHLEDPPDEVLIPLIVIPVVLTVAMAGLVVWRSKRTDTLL

Calcitonin receptor [2] = target: T2, Calcitonin receptor (Homo sapiens, UniProt P30988); test: Agonist activity at human calcitonin receptor expressed in BHK570 cells assessed as increase in intracellular cAMP concentration incubated for 3 hrs in absence of albumin by CRE luciferase reporter gene assay; assay type: functional, cell-based
T2 sequence (P30988 whole entry): T1 sequence (P30988 whole entry)

[3] = Solubility in 100 mM bistrispropane buffer at pH 7.5 incubated for 18 hrs by UPLC analysis; assay type: physicochemical
[4] = Solubility in 100 mM glycylglycine buffer at pH 4.0 incubated for 18 hrs by UPLC analysis; assay type: physicochemical
Calcitonin receptor [5] = target: T2, Calcitonin receptor; test: Agonist activity at human calcitonin receptor expressed in BHK570 cells assessed as increase in intracellular cAMP concentration incubated for 3 hrs in presence of 10% FBS by CRE luciferase reporter gene assay; assay type: functional, cell-based
[6] = Solubility in 100 mM bistrispropane buffer at pH 7.0 incubated for 18 hrs by UPLC analysis; assay type: physicochemical
[7] = target: T1, Amylin receptor AMY3; CALCR/RAMP3; test: Displacement of [125I]-labeled rat amylin from human amylin receptor expressed in BHK tkts13 whole cells co-expressing RAMP3 incubated for 60 mins by scintillation proximity assay; assay type: cell-based
[8] = Solubility in 100 mM bistrispropane buffer at pH 8.0 incubated for 18 hrs by UPLC analysis; assay type: physicochemical
[9] = Solubility in 100 mM bistrispropane buffer at pH 6.0 incubated for 18 hrs by UPLC analysis; assay type: physicochemical
[10] = Solubility in 100 mM glycylglycine buffer at pH 3.0 incubated for 18 hrs by UPLC analysis; assay type: physicochemical
[11] = Solubility in 100 mM bistrispropane buffer at pH 6.5 incubated for 18 hrs by UPLC analysis; assay type: physicochemical
[12] = Solubility in 100 mM glycylglycine buffer at pH 5.0 incubated for 18 hrs by UPLC analysis; assay type: physicochemical
[13] = target: T1, Amylin receptor AMY3; CALCR/RAMP3; test: Agonist activity at human amylin receptor expressed in BHK570 cells co-expressing RAMP3 assessed as increase in intracellular cAMP concentration incubated for 3 hrs in absence of albumin by CRE luciferase reporter gene assay; assay type: functional, cell-based

EC50 [1] [nM]	EC50 (Calcitonin receptor [2]) [nM]	solubility at 18 h [3] [µM]	solubility at 18 h [4] [µM]	EC50 (Calcitonin receptor [5]) [nM]	solubility at 18 h [6] [µM]	IC50 [7] [nM]	solubility at 18 h [8] [µM]	solubility at 18 h [9] [µM]	solubility at 18 h [10] [µM]	solubility at 18 h [11] [µM]	solubility at 18 h [12] [µM]	EC50 [13] [nM]	Compound
0.017	0.014	≥ 200	≥ 200	0.011	≥ 200	0.764	≥ 200	≥ 200	≥ 200	≥ 200	≥ 200	0.01	CC(C)C[C@H](NC(=O)[C@H](CCC(=O)O)NC(=O)[C@H](Cc1cnc[nH]1)NC(=O)[C@H](CC(C)C)NC(=O)[C@H](CCC(=O)O)NC(=O)[C@H](C)NC(=O)[C@H](CO)NC(=O)[C@H](CC(C)C)NC(=O)[C@H](CCCNC(=N)N)NC(=O)CNC(=O)[C@H](CC(C)C)NC(=O)[C@@H](NC(=O)[C@H](C)NC(=O)[C@@H](NC(=O)[C@H](CO)NC(=O)[C@H](CC(C)C)NC(=O)[C@H](CCC(=O)O)NC(=O)[C@H](CO)NC(=O)[C@H](C)NC(=O)CC[C@H](NC(=O)CCCCCCCCCCCCCCCCC(=O)O)C(=O)O)[C@@H](C)O)C(C)C)C(=O)N[C@@H](C)C(=O)N[C@H](C(=O)N[C@@H](CC(C)C)C(=O)N1CCC[C@H]1C(=O)N[C@@H](CCCNC(=N)N)C(=O)N[C@H](C(=O)N[C@@H](CCC(=O)O)C(=O)N[C@H](C(=O)NCC(=O)N[C@@H](CO)C(=O)NCC(=O)N[C@@H](CO)C(=O)N1CCC[C@H]1C(N)=O)[C@@H](C)O)[C@@H](C)O)[C@@H](C)O ({C18 diacid-γGlu}-ASELSTAVLGRLSAELHELATLPRTETGSGSP-NH2)
0.052	0.032	≥ 200	≥ 200	0.013	≥ 200	2.15	≥ 200	≥ 200	≥ 200	≥ 200	≥ 200	0.065	CC(C)C[C@H](NC(=O)[C@H](CCC(=O)O)NC(=O)[C@H](Cc1cnc[nH]1)NC(=O)[C@H](CC(C)C)NC(=O)[C@H](CCC(=O)O)NC(=O)[C@H](C)NC(=O)[C@H](CO)NC(=O)[C@H](CC(C)C)NC(=O)[C@H](CCCNC(=N)N)NC(=O)CNC(=O)[C@H](CC(C)C)NC(=O)[C@@H](NC(=O)[C@H](C)NC(=O)[C@@H](NC(=O)[C@@H](NC(=O)[C@H](CC(C)C)NC(=O)[C@H](CCC(=O)O)NC(=O)[C@H](CO)NC(=O)[C@H](C)NC(=O)CC[C@H](NC(=O)CCCCCCCCCCCCCCCCC(=O)O)C(=O)O)[C@@H](C)O)[C@@H](C)O)C(C)C)C(=O)N[C@@H](C)C(=O)N[C@H](C(=O)N[C@@H](CC(C)C)C(=O)N1CCC[C@H]1C(=O)N[C@@H](CCCNC(=N)N)C(=O)N[C@H](C(=O)N[C@@H](CCC(=O)O)C(=O)N[C@H](C(=O)NCC(=O)N[C@H](C(=O)NCC(=O)N[C@H](C(=O)N1CCC[C@H]1C(N)=O)[C@@H](C)O)[C@@H](C)O)[C@@H](C)O)[C@@H](C)O)[C@@H](C)O ({C18 diacid-γGlu}-ASELTTAVLGRLSAELHELATLPRTETGTGTP-NH2)
0.071	0.042	≥ 200	≥ 200	0.045	≥ 200	0.111	≥ 200	≥ 200	≥ 200	≥ 200	≥ 200	0.038	CC(C)C[C@H](NC(=O)CNC(=O)[C@H](CO)NC(=O)[C@H](C)NC(=O)CC[C@H](NC(=O)CCCCCCCCCCCCCCCCCCC(=O)O)C(=O)O)C(=O)N[C@@H](CO)C(=O)N[C@H](C(=O)N[C@@H](C)C(=O)N[C@@H](C)C(=O)N[C@@H](CC(C)C)C(=O)NCC(=O)N[C@@H](CCCNC(=N)N)C(=O)N[C@@H](CC(C)C)C(=O)N[C@@H](CO)C(=O)N[C@@H](C)C(=O)N[C@@H](CCC(=O)O)C(=O)N[C@@H](CC(C)C)C(=O)N[C@@H](Cc1cnc[nH]1)C(=O)N[C@@H](CCC(=O)O)C(=O)N[C@@H](CC(C)C)C(=O)N[C@@H](C)C(=O)N[C@H](C(=O)N[C@@H](Cc1ccc(O)cc1)C(=O)N1CCC[C@H]1C(=O)N[C@@H](CCCNC(=N)N)C(=O)N[C@H](C(=O)N[C@@H](CCC(=O)O)C(=O)N[C@H](C(=O)NCC(=O)N[C@@H](CO)C(=O)NCC(=O)N[C@@H](CO)C(=O)N1CCC[C@H]1C(N)=O)[C@@H](C)O)[C@@H](C)O)[C@@H](C)O)[C@@H](C)O ({C20 diacid-γGlu}-ASGLSTAALGRLSAELHELATYPRTETGSGSP-NH2)
0.122	0.034	≥ 200	≥ 200	0.092	≥ 200	0.079	≥ 200	≥ 200	≥ 200	≥ 200		0.04	CC(C)C[C@H](NC(=O)CNC(=O)[C@H](CO)NC(=O)[C@H](C)NC(=O)CC[C@H](NC(=O)CCCCCCCCCCCCCCCCCCC(=O)O)C(=O)O)C(=O)N[C@@H](CO)C(=O)N[C@H](C(=O)N[C@@H](C)C(=O)N[C@H](C(=O)N[C@@H](CC(C)C)C(=O)NCC(=O)N[C@@H](CCCNC(=N)N)C(=O)N[C@@H](CC(C)C)C(=O)N[C@@H](CO)C(=O)N[C@@H](CCC(N)=O)C(=O)N[C@@H](CCC(=O)O)C(=O)N[C@@H](CC(C)C)C(=O)N[C@@H](Cc1cnc[nH]1)C(=O)N[C@@H](CCC(=O)O)C(=O)N[C@@H](CC(C)C)C(=O)N[C@@H](CCC(N)=O)C(=O)N[C@H](C(=O)N[C@@H](Cc1ccc(O)cc1)C(=O)N1CCC[C@H]1C(=O)N[C@@H](CCCNC(=N)N)C(=O)N[C@H](C(=O)N[C@@H](CCC(=O)O)C(=O)N[C@H](C(=O)NCC(=O)N[C@@H](CO)C(=O)NCC(=O)N[C@H](C(=O)N[C@@H](Cc1ccc(O)cc1)C(N)=O)[C@@H](C)O)[C@@H](C)O)[C@@H](C)O)[C@@H](C)O)[C@@H](C)O)[C@@H](C)O ({C20 diacid-γGlu}-ASGLSTATLGRLSQELHELQTYPRTETGSGTY-NH2)
0.064	0.028	≥ 200	≥ 200	0.034	≥ 200	11.8	≥ 200	≥ 200	≥ 200	≥ 200		0.024	CC(C)C[C@H](NC(=O)CC[C@H](NC(=O)CCCCCCCCCCCCCCCCCCC(=O)O)C(=O)O)C(=O)N[C@@H](CO)C(=O)NCC(=O)N[C@@H](CC(C)C)C(=O)N[C@@H](CO)C(=O)N[C@H](C(=O)N[C@@H](C)C(=O)N[C@H](C(=O)N[C@@H](CC(C)C)C(=O)NCC(=O)N[C@@H](CCCNC(=N)N)C(=O)N[C@@H](CC(C)C)C(=O)N[C@@H](CO)C(=O)N[C@@H](C)C(=O)N[C@@H](CCC(=O)O)C(=O)N[C@@H](CC(C)C)C(=O)N[C@@H](Cc1cnc[nH]1)C(=O)N[C@@H](CCC(=O)O)C(=O)N[C@@H](CC(C)C)C(=O)N[C@@H](CO)C(=O)N[C@H](C(=O)N[C@@H](Cc1ccc(O)cc1)C(=O)N1CCC[C@H]1C(=O)N[C@@H](CCCNC(=N)N)C(=O)N[C@H](C(=O)N[C@@H](CCC(=O)O)C(=O)N[C@H](C(=O)NCC(=O)N[C@@H](CO)C(=O)NCC(=O)N[C@H](C(=O)N[C@@H](Cc1ccc(O)cc1)C(N)=O)[C@@H](C)O)[C@@H](C)O)[C@@H](C)O)[C@@H](C)O)C(C)C)[C@@H](C)O ({C20 diacid-γGlu}-LSGLSTAVLGRLSAELHELSTYPRTETGSGTY-NH2)

Source: ChEMBL document CHEMBL4420076, “Amylin and calcitonin receptor agonist” (2017)
